pKd: −log10 of the molar value. The source made the active and inactive calls. The rule behind the calls is not given here.
What was measured:
Type in all cases: cell-based
[1] = molecular target: T1, 5-hydroxytryptamine receptor 3A (Homo sapiens, UniProt P46098); assay: Binding affinity to C-terminal-His6-tagged 5HT3A receptor (unknown origin) expressed in HEK293 cells after 2 hrs by fluorimetric analysis
T1 sequence (P46098 whole entry): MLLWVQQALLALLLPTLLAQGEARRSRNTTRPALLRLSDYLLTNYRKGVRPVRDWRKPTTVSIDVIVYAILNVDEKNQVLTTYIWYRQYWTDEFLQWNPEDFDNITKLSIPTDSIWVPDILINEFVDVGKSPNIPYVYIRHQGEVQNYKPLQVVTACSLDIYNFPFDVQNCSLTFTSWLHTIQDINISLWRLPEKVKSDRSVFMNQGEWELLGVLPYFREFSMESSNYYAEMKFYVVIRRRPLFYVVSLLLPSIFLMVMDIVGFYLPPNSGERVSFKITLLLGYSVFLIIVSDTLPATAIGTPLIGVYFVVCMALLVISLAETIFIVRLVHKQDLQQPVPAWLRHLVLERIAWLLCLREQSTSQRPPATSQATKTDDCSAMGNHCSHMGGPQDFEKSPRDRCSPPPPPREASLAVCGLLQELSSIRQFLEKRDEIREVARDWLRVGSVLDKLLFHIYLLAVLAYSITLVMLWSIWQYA

[2] = molecular target: T2, 5-hydroxytryptamine receptor 3A (Homo sapiens) (UniProt P46098); assay: Binding affinity to C-terminal-His6-tagged 5HT3A receptor (unknown origin) expressed in HEK293 cells assessed as decrease in fluorescence at 10 to 500 nM after 2 hrs by fluorimetric analysis in presence of granisetron
T2 sequence (whole entry): T1 sequence (P46098 whole entry)

[3] = molecular target: T2, 5-hydroxytryptamine receptor 3A (Homo sapiens); assay: Binding affinity to C-terminal-His6-tagged 5HT3A receptor (unknown origin) expressed in HEK293 cells assessed as decrease in fluorescence at 10 to 500 nM after 2 hrs by fluorimetric analysis

pKd [1]: 7.08
Activity [2]: inactive
Activity [3]: Active
SMILES: CN(C)c1ccc2c(-c3ccc(C(=O)NCCCCCNC(=O)CCn4cc(CCN)c5cc(O)ccc54)cc3C(=O)[O-])c3ccc(=[N+](C)C)cc-3oc2c1

From ChEMBL document CHEMBL2321670, “Near native binding of a fluorescent serotonin conjugate to serotonin type 3 receptors” (Bioorg Med Chem Lett, 2013)
